# Patent US20260240154A1, “GLOBODERA PALLIDA CONTROL AGENT” (National Agriculture and Food Research Organization, priority 2021, published 2026)
# Columns and labels:
# Gp = conditions: relative to natural hatching factor; cited from earlier work
# Globodera pallida eggs = assay: Hatching accelerating effect evaluation test for Globodera pallida (liquid immersion test); format: in vivo; conditions: 1 mL of 2 ppm test reagent solution added to 1 mL egg suspension; 16° C.; about 2 weeks; two replicates
# Protocol: A predetermined amount of compound (I) was dissolved in an aqueous solution containing 0.05% (v/v) of polyoxyethylene sorbitan monolaurate (Tween20) to prepare a 100 ppm solution of compound (I).
# The 100 ppm solution of compound (I) was further diluted with a 0.05% (v/v) Tween20 aqueous solution to prepare a test reagent solution with a concentration of compound (I) of 2 ppm.
# The cysts of Globodera pallida increased in a greenhouse before the previous year were isolated from the soil, immersed in distilled water and kept at 16° C. for about 2 weeks were crushed with a scalpel and the eggs were taken out to obtain an egg suspension. After preparing a density of approximately 600 eggs per mL, Tween 20 was added to a concentration of 0.05% (v/v). 1 mL of this egg suspension was put into a 13.5 mL screw cap glass vial (inner diameter: 2.1 cm, height: 4.8 cm), and 1 mL each of a test reagent solution with a concentration of compound (I) of 2 ppm was added. It was covered and kept at 16° C.
# About 2 weeks later, 1 mL was taken out, and the number of hatching larvae and the number of eggs were counted under a stereomicroscope. Two replicates were installed for each compound, and the average hatching rate was calculated.
# Globodera pallida [1] = assay: Reduction test of Globodera pallida egg density (pot test); format: in vivo; conditions: 30 days, three pots; for Average density reduction rate at 10 ppm (%): 32 mL of 10 ppm test reagent solution in 800 mL field soil; for Average density reduction rate at 100 ppm (%): 32 mL of 100 ppm test reagent solution in 800 mL field soil
# Protocol: After 20 mg of compound (I) was dissolved in 1 mL of dimethylsulfoxide, 199 mL of a 0.1% polyoxyethylene sorbitan monolaurate aqueous solution was added thereto, to obtain a test reagent solution with a concentration of compound (I) of 100 ppm. Further, this was diluted 10-fold with distilled water, to prepare a 10 ppm test reagent solution.
# Soil was collected from a field infected with Globodera pallida, and the egg density was investigated, as follows. The cysts were separated from 100 g of the dried soil by dry flotation-sieving method and crushed to release nematode eggs, and the number of eggs was counted under a stereomicroscope. This was taken as the initial density.
# 32 mL of the test reagent solution adjusted to 100 ppm or 10 ppm was added to 800 mL of the collected field soil, followed by stirring well. It was packed in a plastic pot (upper diameter: 10.5 cm, height: 22.5 cm), and placed in a greenhouse without any planting for 30 days. Each pot was watered with 26 mL of distilled water every 6 to 7 days.
# After 30 days, the soil was spread on an aluminum bat and air-dried, and the cysts were separated from 100 g of the dry soil in the same manner as above, to count the number of remaining eggs (density after treatment). Three pots were installed per concentration for each compound, and the average density reduction rate was calculated from the initial density and the density after treatment.
# Globodera pallida [2] = assay: Reduction test of Globodera pallida egg density (field plot test); format: in vivo; conditions: for Gp density reduction rate: about 80 days, average of four plots
# Protocol: With reference to Formulation Example 4, a 10% solution of compound No. 2 was prepared. This 10% solution was diluted with distilled water, to prepare test reagent solutions with concentrations of 300 ppm, 30 ppm, and 3 ppm.
# Round plots (diameter:30 cm) were installed in a field infected with Globodera pallida, and the reducing effect of reagent solution treatment on the nematode egg density in soil was investigated. Each plot was prepared by burying a cylinder (30 cm in diameter and 25 cm in height) made of polyethylene sheet to a depth of 20 cm. Test plots were installed in the field and soil samples in each plot were collected for the initial density survey. Then, the test reagent solution of each concentration was sprayed at a ratio of 5 or 1 L per square meter and the soil in the plot was mixed with a shovel to a depth of 15 cm. As a result, treatments with four different doses of compound (1500, 300, 30 and 3 g per 10 a) were prepared.
# About 80 days later, the soil in each plots was collected, and the nematode egg density in the soil was investigated, as follows. The cysts were separated from 100 g of dried soil by a sieving cyst flow method, crushed with a scalpel to extract eggs, suspended in distilled water to extract a certain amount, and the number of eggs was counted under a stereomicroscope.
# Four plots were installed for each concentration, and the average density reduction rate was calculated from the initial density and final density.
Molecule,"Hatching activity, % of that of the natural hatching factor (Gp)",Average hatching rate (%) (Globodera pallida eggs),Average density reduction rate at 10 ppm (%) (Globodera pallida [1]),Average density reduction rate at 100 ppm (%) (Globodera pallida [1]),other results
sodium metavanadate,~70%,,,,
"Cc1ccc(C2CC(=O)NC2(C)C)cc1 (stereo not drawn) [Compound 2, 5,5-dimethyl-4-(4-methylphenyl)-2-pyrrolidinone]",,94.3,95.4,98.0,Gp density reduction rate (Globodera pallida [2]; dose 3 g/10 a): 65.6%; Gp density reduction rate (Globodera pallida [2]; dose 300 g/10 a): 94.4%; Gp density reduction rate (Globodera pallida [2]; dose 1500 g/10 a): 98.4%; Reduction of Gp density in the soil (Globodera pallida [2]; dose of 30 g or more per 10a): ≥ 80%; Gp density reduction rate (Globodera pallida [2]; dose printed as 'g/10 a' (third dose level)): 88.8%
Cc1ccc(C2=CC(=O)OC2(C)C)c(C)c1 [Compound D-15],,94.9,85.8,98.2,
N#C[S-].[Na+] [sodium thiocyanate],about 30%,,,,
"CC1(C)NC(=O)CC1c1ccc(Cl)cc1 (stereo not drawn) [Compound 3, 5,5-dimethyl-4-(4-chlorophenyl)-2-pyrrolidinone]",,95.2,97.4,98.5,
[Na+].[Na+].[Na+].[O]=[V]([O-])([O-])[O-] [sodium orthovanadate],~60%,,,,
"CC1(C)NC(=O)CC1c1ccc(F)c(F)c1 (stereo not drawn) [Compound 12, 5,5-dimethyl-4-(3,4-difluoro-phenyl)-2-pyrrolidinone]",,65.4,97.7,98.8,
"CC1(C)NC(=O)CC1c1ccc(Br)cc1 (stereo not drawn) [Compound 4, 5,5-dimethyl-4-(4-bromophenyl)-2-pyrrolidinone]",,97.9,98.8,98.9,
"Cc1ccc(C2CCC(=O)NC2(C)C)cc1 (stereo not drawn) [Compound A-3, 6,6-dimethyl-5-(p-tolyl)piperidin-2-one]",,97.2,94.9,97.2,
CC1=NN(c2ccc([N+](=O)[O-])cc2)C(=O)C1[N+](=O)[O-] (stereo not drawn) [picrolonic acid],about 30%,,,,
"Cc1ccc(C2CC(=O)OC2(C)C)cc1 (stereo not drawn) [Compound 18, 5,5-dimethyl-4-(p-tolyl)dihydrofuran-2(3H)-one]",,97.1,81.7,96.2,
